The target of the test is T1, Androgen Receptor (Homo sapiens, UniProt P10275).
T1 construct: endogenous in cells; host or cells: VCaP cells
T1 sequence (P10275 1-920): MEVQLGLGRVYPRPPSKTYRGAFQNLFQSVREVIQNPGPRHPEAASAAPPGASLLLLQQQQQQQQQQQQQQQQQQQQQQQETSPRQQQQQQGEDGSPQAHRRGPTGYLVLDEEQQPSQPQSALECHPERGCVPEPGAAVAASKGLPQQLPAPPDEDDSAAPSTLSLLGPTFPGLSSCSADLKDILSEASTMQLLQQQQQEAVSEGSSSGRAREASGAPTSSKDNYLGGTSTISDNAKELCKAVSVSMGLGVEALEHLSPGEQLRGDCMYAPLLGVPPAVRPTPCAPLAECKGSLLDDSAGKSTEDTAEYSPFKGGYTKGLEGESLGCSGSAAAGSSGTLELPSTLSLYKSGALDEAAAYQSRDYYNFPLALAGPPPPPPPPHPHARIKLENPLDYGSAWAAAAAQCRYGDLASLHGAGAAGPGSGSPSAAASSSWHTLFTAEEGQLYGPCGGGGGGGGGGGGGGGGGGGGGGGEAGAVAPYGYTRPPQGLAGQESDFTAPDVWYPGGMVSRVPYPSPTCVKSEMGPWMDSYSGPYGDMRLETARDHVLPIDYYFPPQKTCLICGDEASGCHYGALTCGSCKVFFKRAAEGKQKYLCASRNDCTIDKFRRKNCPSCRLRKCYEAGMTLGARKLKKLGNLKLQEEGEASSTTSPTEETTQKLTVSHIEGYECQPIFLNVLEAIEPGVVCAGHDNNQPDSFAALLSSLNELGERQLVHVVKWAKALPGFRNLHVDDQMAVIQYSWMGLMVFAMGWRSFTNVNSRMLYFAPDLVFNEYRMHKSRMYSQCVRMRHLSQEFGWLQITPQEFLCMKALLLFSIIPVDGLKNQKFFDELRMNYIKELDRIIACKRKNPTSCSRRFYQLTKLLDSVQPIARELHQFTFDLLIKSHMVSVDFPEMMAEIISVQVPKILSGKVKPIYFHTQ
Briefly: Androgen Receptor ELISA assay (PathScan AR ELISA) in VCaP cells: AR degradation, Dmax and DC50. The class given is cell-based. A digest of the protocol: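 VCaP cells in phenol red-free RPMI with 5% charcoal-stripped FBS were grown at least 3 days, then given compound as 7 half-log doses in 0.1% DMSO with 0.1 nM R1881 for 24 h. Lysates went into a sandwich AR ELISA with TMB read at 450 nm.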

Where [1] appears, read: read-out: VCaP DC50; concentration that caused 50% Androgen Receptor degradation, VCaP cells (Table 32).

The structures appear in SMILES notation. Where two headings read alike, the source gives them in different places.

A word on the Dmax: it is the largest share of the target that was removed. The term DC50 denotes the concentration giving 50% degradation. Turning to `Cc1ncsc1-c1ccc(CNC(=O)[C@@H]2C[C@@H](O)CN2C(=O)[C@@H](NC(=O)COCCCCOc2ccc(-c3ccc(N4C(=S)N(c5ccc(C#N)c(Cl)c5)C(=O)C4(C)C)cc3)cc2)C(C)(C)C)cc1` [Example 112, (2S,4R)-1-[(2S)-2-{2-[4-(4-{4-[3-(3-chloro-4-cyanophenyl)-5,5-dimethyl-4-oxo-2-sulfanylideneimidazolidin-1-yl]phenyl}phen-oxy)butoxy]acetamido}-3,3-dimethylbutanoyl]-4-hydroxy-N-{[4-(4-methyl-1,3-thiazol-5-yl)phenyl]methyl}pyrrolidine-2-carboxamide], under “VCaP, read-out: VCaP Dmax (%)”, the Dmax was over 71%. Also, the DC50 under setting [1] was under 50 nM.

For the compound `Cc1ncsc1-c1ccc(CNC(=O)[C@@H]2C[C@@H](O)CN2C(=O)[C@@H](NC(=O)COc2cccc(Oc3ccc(-c4ccc(N5C(=S)N(c6ccc(C#N)c(C(F)(F)F)c6)C(=O)C5(C)C)cc4)cc3)c2)C(C)(C)C)cc1` [Example 114, (2S,4R)-1-[(2S)-2-(2-{3-[4-(4-{3-[4-cyano-3-(trifluoromethyl)phenyl]-5,5-dimethyl-4-oxo-2-sulfanylideneimidazolidin-1-yl}phenyl)phen-oxy]phenoxy}acetamido)-3,3-dimethylbutanoyl]-4-hydroxy-N-{[4-(4-methyl-1,3-thiazol-5-yl)phenyl]methyl}pyrrolidine-2-carboxamide], the Dmax (VCaP, read-out: VCaP Dmax (%)) was in the range of 51 to 70%. The DC50 under setting [1] was under 50 nM.

As for `COc1cc(N2C(=O)C(C)(C)N(c3ccc(-c4ccc(OCCCCOCC(=O)N[C@H](C(=O)N5C[C@H](O)C[C@H]5C(=O)NCc5ccc(-c6ocnc6C)cc5)C(C)(C)C)cc4)cc3)C2=S)ccc1C#N` [Example 115, (2S,4R)-1-[(2S)-2-{2-[4-(4-{4-[3-(4-cyano-3-methoxyphenyl)-5,5-dimethyl-4-oxo-2-sulfanylideneimidazolidin-1-yl]phenyl}phenoxy)butoxy]acetamido}-3,3-dimethylbutanoyl]-4-hydroxy-N-{[4-(4-methyl-1,3-oxazol-5-yl)phenyl]methyl}pyrrolidine-2-carboxamide], the Dmax (VCaP, highest percentage of Androgen Receptor degradation observed, VCaP cells (Table 32); read-out: VCaP Dmax (%)) is over 71%. In addition, where the note is “concentration that caused 50% Androgen Receptor degradation, VCaP cells (Table 32); read-out: VCaP DC50”, the DC50 was under 50 nM.

On to `Cc1ncoc1-c1ccc(CNC(=O)[C@@H]2C[C@@H](O)CN2C(=O)[C@@H](NC(=O)COCCCCOc2ccc(-c3ccc(N4C(=S)N(c5ccc(C#N)c(C(F)(F)F)c5)C(=O)C4(C)C)c(F)c3)cc2)C(C)(C)C)cc1` [Example 116, (2S,4R)-1-[(2S)-2-(2-{4-[4-(4-{3-[4-cyano-3-(trifluoromethyl)phenyl]-5,5-dimethyl-4-oxo-2-sulfanylideneimidazolidin-1-yl}-3-fluorophenyl)phen-oxy]butoxy}acetamido)-3,3-dimethylbutanoyl]-4-hydroxy-N-{[4-(4-methyl-1,3-oxazol-5-yl)phenyl]methyl}pyrrolidine-2-carboxamide], for which, for the setting “VCaP, read-out: VCaP Dmax (%)”, the Dmax is over 71%. Besides, under setting [1], the DC50 is under 50 nM.

For the compound `CC(C)(C)[C@H](NC(=O)COCCCCOc1ccc(-c2ccc(N3C(=S)N(c4ccc(C#N)c(C(F)(F)F)c4)C(=O)C3(C)C)c(F)c2)cc1)C(=O)N1C[C@H](O)C[C@H]1C(=O)NCc1ccc(-c2cncs2)cc1` [Example 117, (2S,4R)-1-[(2S)-2-(2-{4-[4-(4-{3-[4-cyano-3-(trifluoromethyl)phenyl]-5,5-dimethyl-4-oxo-2-sulfanylideneimidazolidin-1-yl}-3-fluorophenyl)phen-oxy]butoxy}acetamido)-3,3-dimethylbutanoyl]-4-hydroxy-N-{[4-(1,3-thiazol-5-yl)phenyl]methyl}pyrrolidine-2-carboxamide], the Dmax (VCaP, read-out: VCaP Dmax (%)) was over 71%. For the same compound, the DC50 under setting [1] is under 50 nM.

In the case of `Cc1ncsc1-c1ccc(CNC(=O)[C@@H]2C[C@@H](O)CN2C(=O)[C@@H](NC(=O)COCCCCOc2ccc(-c3ccc(N4C(=S)N(c5ccc(C#N)c(C(F)(F)F)c5)C(=O)C4(C)C)c(F)c3)cc2)C(C)(C)C)cc1` [Example 118, (2S,4R)-1-[(2S)-2-(2-{4-[4-(4-{3-[4-cyano-3-(trifluoromethyl)phenyl]-5,5-dimethyl-4-oxo-2-sulfanylideneimidazolidin-1-yl}-3-fluorophenyl)phen-oxy]butoxy}acetamido)-3,3-dimethylbutanoyl]-4-hydroxy-N-{[4-(4-methyl-1,3-thiazol-5-yl)phenyl]methyl}pyrrolidine-2-carboxamide], where the note is “VCaP, read-out: VCaP Dmax (%)”, the Dmax is over 71%. Moreover, under setting [1], the DC50 is under 50 nM.

As for `Cc1ncoc1-c1ccc(CNC(=O)[C@@H]2C[C@@H](O)CN2C(=O)[C@@H](NC(=O)COCCCCOc2ccc(-c3ccc(N4C(=S)N(c5ccc(C#N)c(C(F)(F)F)c5)C(=O)C45CCC5)cc3)cc2)C(C)(C)C)cc1` [Example 119, (2S,4R)-1-[(2S)-2-(2-{4-[4-(4-{7-[4-cyano-3-(trifluoromethyl)phenyl]-8-oxo-6-sulfanylidene-5,7-diazaspiro[3.4]octan-5-yl}phenyl)phenoxy]butoxy}acetamido)-3,3-dimethylbutanoyl]-4-hydroxy-N-{[4-(4-methyl-1,3-oxazol-5-yl)phenyl]methyl}pyrrolidine-2-carboxamide], the Dmax (VCaP, read-out: VCaP Dmax (%)) fell in the range of 51 to 70%. Besides, the DC50 under setting [1] is under 50 nM.

With `Cc1ncsc1-c1ccc(CNC(=O)[C@@H]2C[C@@H](O)CN2C(=O)[C@@H](NC(=O)COCCCCOc2ccc(-c3ccc(N4C(=S)N(c5ccc(C#N)c(C(F)(F)F)c5)C(=O)C45CCC5)cc3)cc2)C(C)(C)C)cc1` [Example 120, (2S,4R)-1-[(2S)-2-(2-{4-[4-(4-{7-[4-cyano-3-(trifluoromethyl)phenyl]-8-oxo-6-sulfanylidene-5,7-diazaspiro[3.4]octan-5-yl}phenyl)phenoxy]butoxy}acetamido)-3,3-dimethylbutanoyl]-4-hydroxy-N-{[4-(4-methyl-1,3-thiazol-5-yl)phenyl]methyl}pyrrolidine-2-carboxamide], the Dmax (VCaP, read-out: VCaP Dmax (%)) was over 71%. In addition, the DC50 under setting [1] was under 50 nM.

For `CC(C)(C)[C@H](NC(=O)COCCCCOc1ccc(-c2ccc(N3C(=S)N(c4ccc(C#N)c(Cl)c4)C(=O)C3(C)C)cc2)c(F)c1)C(=O)N1C[C@H](O)C[C@H]1C(=O)NCc1ccc(-c2cnco2)cc1` [Example 121, (2S,4R)-1-[(2S)-2-{2-[4-(4-{4-[3-(3-chloro-4-cyanophenyl)-5,5-dimethyl-4-oxo-2-sulfanylideneimidazolidin-1-yl]phenyl}-3-fluorophenoxy)butoxy]acetamido}-3,3-dimethylbutanoyl]-4-hydroxy-N-{[4-(1,3-oxazol-5-yl)phenyl]methyl}pyrrolidine-2-carboxamide], for the setting “VCaP, read-out: VCaP Dmax (%)”, the Dmax is over 71%. Besides, under setting [1], the DC50 was under 50 nM.

Consider `CC(C)(C)[C@H](NC(=O)COCCCCOc1ccc(-c2ccc(N3C(=S)N(c4ccc(C#N)c(C(F)(F)F)c4)C(=O)C3(C)C)cc2)cc1)C(=O)N1C[C@H](O)C[C@H]1C(=O)NCc1ccc(-c2ccn[nH]2)cc1` [Example 122, (2S,4R)-1-[(2S)-2-(2-{4-[4-(4-{3-[4-cyano-3-(trifluoromethyl)phenyl]-5,5-dimethyl-4-oxo-2-sulfanylideneimidazolidin-1-yl}phenyl)phenoxy]butoxy}acetamido)-3,3-dimethylbutanoyl]-4-hydroxy-N-{[4-(1H-pyrazol-5-yl)phenyl]methyl}pyrrolidine-2-carboxamide], for which, where the note is “VCaP, read-out: VCaP Dmax (%)”, the Dmax was over 71%. Further, the DC50 under setting [1] is under 50 nM.

On to `CC(C)(C)[C@H](NC(=O)COCCCCOc1ccc(-c2ccc(N3C(=S)N(c4ccc(C#N)c(Cl)c4F)C(=O)C3(C)C)cc2)cc1)C(=O)N1C[C@H](O)C[C@H]1C(=O)NCc1ccc(-c2cnco2)cc1` [Example 123, (2S,4R)-1-[(2S)-2-{2-[4-(4-{4-[3-(3-chloro-4-cyano-2-fluorophenyl)-5,5-dimethyl-4-oxo-2-sulfanylideneimidazolidin-1-yl]phenyl}phenoxy)butoxy]acetamido}-3,3-dimethylbutanoyl]-4-hydroxy-N-{[4-(1,3-oxazol-5-yl)phenyl]methyl}pyrrolidine-2-carboxamide], for which, where the note is “VCaP, read-out: VCaP Dmax (%)”, the Dmax is over 71%. Moreover, the DC50 under setting [1] was under 50 nM.

Take `CC(C)(C)[C@H](NC(=O)COCCCCOc1ccc(-c2ccc(N3C(=S)N(c4ccc(C#N)c(Cl)c4)C(=O)C34CCC4)cc2)cc1)C(=O)N1C[C@H](O)C[C@H]1C(=O)NCc1ccc(-c2cnco2)cc1` [Example 124, (2S,4R)-1-[(2S)-2-{2-[4-(4-{4-[7-(3-chloro-4-cyanophenyl)-8-oxo-6-sulfanylidene-5,7-diazaspiro[3.4]octan-5-yl]phenyl}phenoxy)butoxy]acetamido}-3,3-dimethylbutanoyl]-4-hydroxy-N-{[4-(1,3-oxazol-5-yl)phenyl]methyl}pyrrolidine-2-carboxamide]: the Dmax (VCaP, read-out: VCaP Dmax (%)) is 51 to 70%. Further, under setting [1], the DC50 was under 50 nM.

(Values after patent US11427548B2 (Arvinas Operations, Inc., priority 2015, dated 2022).)
